Results on 1 compound are retold here after patent publication US20190343932A1, “NOVEL TREATMENTS” (ENZYMATICA AB, priority 2014, published 2019).

Common to all, as to assay: Activity assay to determine kinetic constants
Holding throughout (assay type): biochemical

Test [1] concerns the target Atlantic cod (Gadus morhua) trypsin I (SEQ ID NO: 1) variant EZA-002, D217S, T218N, S69K (Gadus morhua, UniProt P16049, D236S/S88K/T237N). The source says: (§1) The following polypeptides were obtained or produced: • (a) Wldtype trypsin I purified from Atlantic cod (“WT-Tryp” or “wildtype”); • (b) Recombinantly expressed wildtype trypsin I of Atlantic cod (SEQ ID NO:1, “R-Tryp”); and • (c) Thirty-eight different mutated versions of trypsin I of Atlantic cod (i.e. mutated sequences of SEQ ID NO:1).
(§2) Polypeptides corresponding to the wildtype amino acid sequence of trypsin I from Atlantic cod and thirty-eight mutated versions thereof were produced using the methods described in Example C.
(§3) Activation of recombinant enzymes (approximately 0.01 mg/ml) was achieved by adding wild type trypsin (0.2 U/ml) at room temperature and incubate for 24 hours. The mixture was made in 20 mM Tris-HCl, 1 mM CaCl2, 50% glycerol, pH 8.0 to a final volume of 200 μl.
(§4) The substrate (Gly-Pro-Arg) was used at concentrations 0.005-0.15 mM in assay buffer containing 1% DMSO. 245 μL of substrate solutions were pipetted into a 96-well plate. The reaction was started by adding 5 μL of the sample mixture (above) and monitored at 410 nm in a SpectraMax plate reader. Kinetic measurement was performed every minute of a continuous 15-min run.

In test [2] the target is Atlantic cod (Gadus morhua) trypsin I (SEQ ID NO: 1) variant EZA-003, K133T (Gadus morhua, UniProt P16049, K152T).
Source text: as §1, §2, §3, §4

Test [3] has as its target Atlantic cod (Gadus morhua) trypsin I (SEQ ID NO: 1) variant EZA-004, K133L (Gadus morhua, UniProt P16049, K152L).
Source text: as §1, §2, §3, §4

In test [4] the target is Atlantic cod (Gadus morhua) trypsin I (SEQ ID NO: 1) variant EZA-005, K133V (Gadus morhua, UniProt P16049, K152V).
Source text: as §1, §2, §3, §4

Test [5] has as its target Atlantic cod (Gadus morhua) trypsin I (SEQ ID NO: 1) variant EZA-006, K133E (Gadus morhua, UniProt P16049, K152E).
Source text: as §1, §2, §3, §4

The target of test [6] is Atlantic cod (Gadus morhua) trypsin I (SEQ ID NO: 1) variant EZA-007, N80T (Gadus morhua, UniProt P16049, N99T).
Source text: as §1, §2, §3, §4

The target of test [7] is Atlantic cod (Gadus morhua) trypsin I (SEQ ID NO: 1) variant EZA-008, I81L (Gadus morhua, UniProt P16049, I100L).
Source text: as §1, §2, §3, §4

Test [8] has as its target Atlantic cod (Gadus morhua) trypsin I (SEQ ID NO: 1) variant EZA-009, L165G, P202Y (Gadus morhua, UniProt P16049, L184G/P221Y).
Source text: as §1, §2, §3, §4

Test [9] concerns the target T1, Atlantic cod (Gadus morhua) trypsin I, recombinant wildtype EZA-001 (no mutations), SEQ ID NO: 1 (Gadus morhua, UniProt P16049).
T1 construct: mature trypsin from MEEDK-zymogen
T1 sequence (P16049 20-241): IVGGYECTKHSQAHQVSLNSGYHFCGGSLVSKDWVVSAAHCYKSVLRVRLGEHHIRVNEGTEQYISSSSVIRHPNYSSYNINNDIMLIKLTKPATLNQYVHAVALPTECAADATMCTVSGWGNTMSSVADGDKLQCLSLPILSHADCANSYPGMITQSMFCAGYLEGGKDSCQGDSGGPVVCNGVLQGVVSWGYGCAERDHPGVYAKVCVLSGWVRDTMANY
Source text: as §1, §2, §3, §4

Test [10] addresses T2, Atlantic cod (Gadus morhua) trypsin I, wildtype, purified from Atlantic cod (WT-Trp), SEQ ID NO: 1 (Gadus morhua, UniProt P16049).
T2 sequence (P16049 20-241): T1 sequence (P16049 20-241)
To be noted: reference.
Source text: as §1, §2, §3, §4

The structures appear in SMILES notation. Where a SMILES comes first, the peptide text is derived from it. The star is where a group is joined. pNA = O=[N+]([O-])c1ccc(N*)cc1; Cbz = O=C(OCc1ccccc1)*

Atlantic cod (Gadus morhua) trypsin I (SEQ ID NO: 1) variant EZA-007, N80T, sequence (P16049 20-241 N99T): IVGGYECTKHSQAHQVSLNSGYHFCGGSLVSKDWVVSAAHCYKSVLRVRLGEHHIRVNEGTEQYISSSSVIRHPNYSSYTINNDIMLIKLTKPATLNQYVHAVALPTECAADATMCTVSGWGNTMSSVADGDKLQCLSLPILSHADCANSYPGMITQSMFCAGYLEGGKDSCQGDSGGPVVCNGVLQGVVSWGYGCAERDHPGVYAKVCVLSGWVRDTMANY
Atlantic cod (Gadus morhua) trypsin I (SEQ ID NO: 1) variant EZA-003, K133T, sequence (P16049 20-241 K152T): as the sequence (P16049 20-241 N99T) above, with T80N, K133T counted along it
Atlantic cod (Gadus morhua) trypsin I (SEQ ID NO: 1) variant EZA-009, L165G, P202Y, sequence (P16049 20-241 L184G/P221Y): as the sequence (P16049 20-241 N99T) above, with T80N, L165G, P202Y counted along it
Atlantic cod (Gadus morhua) trypsin I (SEQ ID NO: 1) variant EZA-002, D217S, T218N, S69K, sequence (P16049 20-241 S88K/D236S/T237N): as the sequence (P16049 20-241 N99T) above, with S69K, T80N, D217S, T218N counted along it
Atlantic cod (Gadus morhua) trypsin I (SEQ ID NO: 1) variant EZA-005, K133V, sequence (P16049 20-241 K152V): as the sequence (P16049 20-241 N99T) above, with T80N, K133V counted along it
Atlantic cod (Gadus morhua) trypsin I (SEQ ID NO: 1) variant EZA-008, I81L, sequence (P16049 20-241 I100L): as the sequence (P16049 20-241 N99T) above, with T80N, I81L counted along it
Atlantic cod (Gadus morhua) trypsin I (SEQ ID NO: 1) variant EZA-004, K133L, sequence (P16049 20-241 K152L): as the sequence (P16049 20-241 N99T) above, with T80N, K133L counted along it
Atlantic cod (Gadus morhua) trypsin I (SEQ ID NO: 1) variant EZA-006, K133E, sequence (P16049 20-241 K152E): as the sequence (P16049 20-241 N99T) above, with T80N, K133E counted along it

Regarding `N=C(N)NCCC[C@H](NC(=O)[C@@H]1CCCN1C(=O)CNC(=O)OCc1ccccc1)C(=O)Nc1ccc([N+](=O)[O-])cc1` [Gly-Pro-Arg, Cbz-Gly-Pro-Arg-p-nitroanilide] (Cbz-Gly-Pro-Arg-pNA), the “Vmax, relative to WT-Trp” value worked out at 99 in [1]; 96 in test [2]; 82 in test [3]; 96 in [4]; 98 in [5]; 99 in [6]. In addition, the “Vmax, relative to WT-Trp” value came out at 95 in test [7], 98 in [8] and 99 in [9]. Besides, the “Vmax (Kcat), relative to WT-Trp” value in [10] is 100.
